Experimental findings from ChEMBL document CHEMBL4725408, “Antibacterial Spiropyrimidinetriones with N-Linked Azole Substituents on a Benzisoxazole Scaffold Targeting DNA Gyrase” (J Med Chem, 2020) are described below.

Data set [1] is described as follows: Inhibition of recombinant Escherichia coli DNA gyrase AB expressed in Escherichia coli BL21 (DE3) using relaxed pJT519 DNA as substrate preincubated for 20 mins followed by 5'-BODIPY-TMR-TTCTTCTTCT addition and measured after 1 hr by fluorescence anisotropy.
The nature of data set [2]: n-octanol/phosphate buffer partition coefficient, log D of the compound at pH 7.4 measured after 1 hr by UV-LC/MS based shake flask method. In kind it is physicochemical.
Data set [3] is described as follows: Solubility of the compound by high throughput solubility assay. In kind it is physicochemical.
Data set [4] can be described thus: Protein binding in human plasma assessed as unbound fraction at 10 uM measured after 16 hrs by LC-MS/MS based equilibrium dialysis method. In kind it is ADME, cell-free.
Data set [5] has as its system Staphylococcus aureus. Description: Antibacterial activity against methicillin sensitive Staphylococcus aureus ARC516 by broth microdilution method. The data set is classed as functional.
For data set [6], the system named is Staphylococcus aureus. Kind of data set: Antibacterial activity against methicillin sensitive Staphylococcus aureus ARC516 in presence of human serum by broth microdilution method. The data set is classed as functional.
For data set [7], the system named is Staphylococcus aureus. Description: Antibacterial activity against methicillin/quinolone-resistant Staphylococcus aureus ARC517 by broth microdilution method. In kind it is functional.
The next data set deals with Escherichia coli. Kind of data set: Antibacterial activity against Escherichia coli ARC523 by broth microdilution method. The data set is classed as functional.
In a further data set the test system is Streptococcus pneumoniae. Kind of data set: Antibacterial activity against Streptococcus pneumoniae ARC548 by broth microdilution method. In kind it is functional.
Another data set relates to Streptococcus pyogenes. Description: Antibacterial activity against Streptococcus pyogenes ARC838 by broth microdilution method. The data set is classed as functional.
A further data set concerns Haemophilus influenzae. Description: Antibacterial activity against Haemophilus influenzae ARC737 by broth microdilution method. In kind it is functional.
The next data set has as its system L5178Y. Kind of data set: Genotoxicity in mouse L5178Y cells using DAPI staining by microscopy based micronucleation assay. In kind it is toxicity, cell-based.

≈ marks a conversion by molar mass, not a printed value. Where only a bound is given, the exact number is not on record here.

For the molecule `C[C@@H]1CN2c3c(cc4c(-n5ncnc5NC[C@@H](C)O)noc4c3F)CC3(C(=O)NC(=O)NC3=O)[C@H]2[C@H](C)O1`, the IC50 in data set [1] was determined as 160 nM. Further, the logD at 1 h in data set [2] was 1.9. For the same molecule, the solubility in data set [3] was over 1000 µM. Besides, the fraction unbound at 16 h, 10 µM in data set [4] was determined as 0.13. The MIC in the data set with Staphylococcus aureus [5] was 0.098 µM (≈ 0.0518 µg/mL); in the data set with Staphylococcus aureus [6], under 0.2 µM; against Staphylococcus aureus [7] it was 0.63 µM (≈ 0.333 µg/mL); against Escherichia coli, 25 µM (≈ 13.2 µg/mL); with Streptococcus pneumoniae, under 0.2 µM; against Streptococcus pyogenes, under 0.2 µM. Further, the MIC against Haemophilus influenzae was 0.39 µM (≈ 0.206 µg/mL). This molecule had an NOAEL with L5178Y of 12 µM.
Consider `COCCNc1ncnn1-c1noc2c(F)c3c(cc12)CC1(C(=O)NC(=O)NC1=O)[C@H]1[C@H](C)O[C@H](C)CN31`, for which the IC50 in data set [1] was determined as 38 nM. This molecule also showed a logD at 1 h in data set [2] of 2.2. In data set [3], this molecule had a solubility of 6 µM (≈ 3.17 µg/mL). Moreover, the fraction unbound at 16 h, 10 µM in [4] amounted to 0.077. Further, the MIC is 0.039 µM (≈ 0.0206 µg/mL) with Staphylococcus aureus [5]; under 0.2 µM in the data set on Staphylococcus aureus [6]; 0.098 µM (≈ 0.0518 µg/mL) against Staphylococcus aureus [7]; 25 µM (≈ 13.2 µg/mL) in the data set with Escherichia coli; under 0.2 µM against Streptococcus pneumoniae; under 0.2 µM with Streptococcus pyogenes. In addition, the MIC against Haemophilus influenzae is 0.39 µM (≈ 0.206 µg/mL).
Consider `C[C@@H]1CN2c3c(cc4c(-n5ncnc5[C@@H](C)O)noc4c3F)CC3(C(=O)NC(=O)NC3=O)[C@H]2[C@H](C)O1`, for which the IC50 in data set [1] is 180 nM. In data set [2], this molecule returned a logD at 1 h of 1.4. In data set [3], this molecule returned a solubility of 920 µM (≈ 460 µg/mL). Besides, the fraction unbound at 16 h, 10 µM in [4] came to 0.23. Moreover, the MIC against Staphylococcus aureus [5] amounted to 0.39 µM (≈ 0.195 µg/mL); with Staphylococcus aureus [6], 0.78 µM; against Staphylococcus aureus [7] it was 0.78 µM (≈ 0.39 µg/mL); against Escherichia coli, 50 µM (≈ 25 µg/mL); in the data set on Streptococcus pneumoniae, 0.78 µM (≈ 0.39 µg/mL); in the data set with Streptococcus pyogenes, 0.78 µM (≈ 0.39 µg/mL). In the data set on Haemophilus influenzae, the MIC was 0.78 µM (≈ 0.39 µg/mL).
Take `C[C@@H]1CN2c3c(cc4c(-n5ncnc5[C@H](C)O)noc4c3F)CC3(C(=O)NC(=O)NC3=O)[C@H]2[C@H](C)O1`: in data set [1], the concentration for half-maximal inhibition (IC50) was determined as 430 nM. Besides, in data set [2], the logD at 1 h was 1.3. In addition, the concentration in solution in data set [3] (solubility) came to 960 µM (≈ 479 µg/mL). For the same molecule, in data set [4], the unbound share (fraction unbound) at 16 h, 10 µM worked out at 0.21. Besides, the MIC against Staphylococcus aureus [5] is 0.78 µM (≈ 0.39 µg/mL); with Staphylococcus aureus [6], 1.6 µM; in the data set on Staphylococcus aureus [7], 1.6 µM (≈ 0.799 µg/mL); in the data set with Escherichia coli it was 79 µM (≈ 39.5 µg/mL); in the data set on Streptococcus pneumoniae, 1.6 µM (≈ 0.799 µg/mL); with Streptococcus pyogenes, 1.6 µM (≈ 0.799 µg/mL). This molecule returned an MIC in the data set with Haemophilus influenzae of 1.6 µM (≈ 0.799 µg/mL).
Regarding `C[C@@H]1CN2c3c(cc4c(-n5ncnc5N(C)C)noc4c3F)CC3(C(=O)NC(=O)NC3=O)[C@H]2[C@H](C)O1`, the IC50 in [1] came to 670 nM. The same molecule had a logD at 1 h in [2] of 1.7. Further, the solubility in data set [3] was over 1000 µM. For the same molecule, in data set [4], the fraction unbound at 16 h, 10 µM came out at 0.13. The MIC in the data set on Staphylococcus aureus [5] was 0.39 µM (≈ 0.194 µg/mL); in the data set with Staphylococcus aureus [6], 1.6 µM; with Staphylococcus aureus [7] it was 0.78 µM (≈ 0.389 µg/mL); with Escherichia coli, 100 µM (≈ 49.8 µg/mL); against Streptococcus pneumoniae it was 1.6 µM (≈ 0.798 µg/mL); with Streptococcus pyogenes it was 0.78 µM (≈ 0.389 µg/mL). The same molecule gave an MIC in the data set on Haemophilus influenzae of 1.6 µM (≈ 0.798 µg/mL).
Turning to `C[C@@H]1CN2c3c(cc4c(-n5ncnc5NCCN(C)C)noc4c3F)CC3(C(=O)NC(=O)NC3=O)[C@H]2[C@H](C)O1`, in [1], the IC50 turned out to be 150 nM. This molecule also showed a logD at 1 h in data set [2] of 1.4. Further, the solubility in data set [3] was over 1000 µM. For the same molecule, in data set [4], the free fraction (fraction unbound) at 16 h, 10 µM is 0.53. The MIC stood at 0.78 µM (≈ 0.422 µg/mL) in the data set with Staphylococcus aureus [5]; 0.78 µM in the data set with Staphylococcus aureus [6]; 6.2 µM (≈ 3.36 µg/mL) in the data set with Staphylococcus aureus [7]; 50 µM (≈ 27.1 µg/mL) in the data set on Escherichia coli; 0.39 µM (≈ 0.211 µg/mL) in the data set on Streptococcus pneumoniae; 0.39 µM (≈ 0.211 µg/mL) with Streptococcus pyogenes. In addition, the MIC with Haemophilus influenzae turned out to be 1.6 µM (≈ 0.866 µg/mL). In addition, in the data set with L5178Y, the NOAEL is over 400 µM.
Turning to `Cc1ncnn1-c1noc2c(F)c3c(cc12)CC1(C(=O)NC(=O)NC1=O)[C@H]1[C@H](C)O[C@H](C)CN31`, the IC50 in data set [1] was found to be 340 nM. In data set [2], this molecule had a logD at 1 h of 2.1. Moreover, in data set [3], the concentration in solution (solubility) was 22 µM (≈ 10.3 µg/mL). In addition, the fraction unbound at 16 h, 10 µM in data set [4] is 0.098. Further, the MIC with Staphylococcus aureus [5] worked out at 0.2 µM (≈ 0.0939 µg/mL); in the data set on Staphylococcus aureus [6] it was 0.39 µM; against Staphylococcus aureus [7], 0.39 µM (≈ 0.183 µg/mL); with Escherichia coli, 50 µM (≈ 23.5 µg/mL); against Streptococcus pneumoniae, 0.78 µM (≈ 0.366 µg/mL); against Streptococcus pyogenes, 0.55 µM (≈ 0.258 µg/mL). In the data set on Haemophilus influenzae, this molecule gave an MIC of 1.6 µM (≈ 0.751 µg/mL).
With `Cc1ncn(-c2noc3c(F)c4c(cc23)CC2(C(=O)NC(=O)NC2=O)[C@H]2[C@H](C)O[C@H](C)CN42)n1`, the IC50 in data set [1] is 1000 nM. For the same molecule, the logD at 1 h in data set [2] amounted to 1.9. In data set [3], this molecule returned a solubility of 29 µM (≈ 13.6 µg/mL). Further, in [4], the fraction unbound at 16 h, 10 µM stood at 0.053. Further, the MIC came out at 0.2 µM (≈ 0.0939 µg/mL) in the data set with Staphylococcus aureus [5]; 0.78 µM with Staphylococcus aureus [6]; 0.78 µM (≈ 0.366 µg/mL) against Staphylococcus aureus [7]; 100 µM (≈ 46.9 µg/mL) with Escherichia coli; 3.1 µM (≈ 1.46 µg/mL) with Streptococcus pneumoniae; 0.78 µM (≈ 0.366 µg/mL) against Streptococcus pyogenes. The molecule further had an MIC in the data set with Haemophilus influenzae of 1.6 µM (≈ 0.751 µg/mL).
Regarding `C[C@@H]1CN2c3c(cc4c(-n5ncnc5NCC(=O)N5CC[C@@H](N(C)C)C5)noc4c3F)CC3(C(=O)NC(=O)NC3=O)[C@H]2[C@H](C)O1`, in data set [1], the IC50 came to 80 nM. In addition, in data set [2], the logD at 1 h stood at 1.3. Moreover, the concentration in solution in data set [3] (solubility) was 690 µM (≈ 431 µg/mL). For the same molecule, in data set [4], the fraction unbound at 16 h, 10 µM was found to be 0.26. Further, the MIC was 0.2 µM (≈ 0.125 µg/mL) against Staphylococcus aureus [5]; 0.2 µM with Staphylococcus aureus [6]; 1.6 µM (≈ 0.999 µg/mL) against Staphylococcus aureus [7]; 25 µM (≈ 15.6 µg/mL) in the data set with Escherichia coli; under 0.2 µM in the data set on Streptococcus pneumoniae; 0.39 µM (≈ 0.244 µg/mL) in the data set on Streptococcus pyogenes. The MIC against Haemophilus influenzae was 1.6 µM (≈ 0.999 µg/mL).
